Test results from PMC10005967, “Discriminative binding of tau PET tracers PI2620, MK6240 and RO948 in Alzheimer’s disease, corticobasal degeneration and progressive supranuclear palsy brains” (Molecular Psychiatry, 2022).
pIC50: −log10 of the molar value. Values joined by “and” are separate entries in the source; they are usually repeats but may differ in a detail not shown here. Equal values may be shown once. Read-outs that look alike come from different tables or passages of the source.

What was measured:
[1] = target: tau, AD FC brain homogenates (Homo sapiens, UniProt P10636); assay: ^3H-PI2620 competitive binding assay in AD frontal cortex brain homogenates; conditions: for proportion of HA binding sites / proportion of SHA binding sites: vs 0.6 nM ^3H-PI2620; for pIC50: vs 0.6 nM ^3H-PI2620, 2-site competition model
Description: (§1) Frozen human brain tissue from eleven AD, five CBD, four PSP and eight control patients was provided by the Netherlands Brain Bank (Amsterdam, Netherlands). Frozen human brain tissue from PSP case number 26 was provided by Professor Bernadino Ghetti, the Neuropathology of Dementia Laboratory, Indiana University School of Medicine (Indianapolis, IN, USA) (see Table 1 for demographic data). Brain homogenates were prepared by homogenising the brain tissue in phosphate buffer saline (PBS; pH 7.4) containing 0.1% BSA (250 mg tissue/mL) and protease/phosphatase inhibitors (10 μL/mL); aliquots were stored at −80 °C until used in the binding experiments.
Competitive binding assays on four AD FC brain homogenates [two early-onset (EO) AD and two late-onset (LO) AD; 0.5 mg tissue] were performed using 0.6 nM of ^3H-PI2620 and increasing concentrations (1 × 10^−18 M to 1 × 10^−6 M) of unlabelled PI2620, unlabelled MK6240 and unlabelled RO948 for 2 h at RT. The binding assay was accomplished as described above. The half-maximal inhibitory concentration (IC50) was measured using the 2-site competition model in GraphPad Prism 9 software.

[2] = tested on: tau, AD brain homogenates; conditions: cited from earlier work; for high-affinity (HA) binding site: AD brain homogenates
tau, PSP FC homogenates = tau, PSP FC homogenates (Homo sapiens, UniProt P10636); assay: ^3H-PI2620 competitive binding assay in PSP frontal cortex brain homogenates; conditions: vs 0.6 nM ^3H-PI2620, only one binding site
Description: as §1
(§2) Competitive binding assays were also carried out under the same conditions, on three PSP FC homogenates and three CBD FC homogenates using 0.6 nM and 1 nM of ^3H-PI2620, respectively, in the presence of increasing concentrations of unlabelled PI2620 (1 × 10^−18 M to 1 × 10^−6 M). The 2-site competition model in GraphPad Prism 9 software was used to plot the AD, CBD, and PSP data.

tau, CBD FC homogenates = tau, CBD FC homogenates (Homo sapiens, UniProt P10636); assay: ^3H-PI2620 competitive binding assay in CBD frontal cortex brain homogenates
Description: as §1, §2

[3] = tested on: tau, post-mortem PSP brain tissue; conditions: cited from earlier work
[4] = read-out: IC50(1), super-high affinity (SHA) site
[5] = read-out: IC50(2), high affinity (HA) site

tau, AD FC brain homogenates, sequence (P10636 623-708 limits assumed): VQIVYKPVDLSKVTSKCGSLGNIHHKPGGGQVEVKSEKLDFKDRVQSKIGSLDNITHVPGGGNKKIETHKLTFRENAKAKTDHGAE
tau, CBD FC homogenates, sequence (P10636 561-697 limits assumed): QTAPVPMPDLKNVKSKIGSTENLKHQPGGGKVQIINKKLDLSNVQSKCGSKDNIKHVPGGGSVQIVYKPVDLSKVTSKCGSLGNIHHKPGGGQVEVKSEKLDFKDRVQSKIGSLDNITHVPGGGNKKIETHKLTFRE
tau, PSP FC homogenates, sequence (P10636 561-698 limits assumed): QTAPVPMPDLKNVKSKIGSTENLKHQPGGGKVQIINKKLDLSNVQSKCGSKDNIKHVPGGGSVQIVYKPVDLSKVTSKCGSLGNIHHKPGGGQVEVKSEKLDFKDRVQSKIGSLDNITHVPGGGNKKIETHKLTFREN

| SMILES | proportion of HA binding sites [1] | proportion of SHA binding sites [1] | pIC50 [1, 4] | pIC50 [1, 5] | high-affinity (HA) binding site [2] | HA site ([2]; AD hippocampus, ^3H-MK6240) | super-high affinity (SHA) site ([2]; AD hippocampus, ^3H-MK6240) | proportion of HA site ([2]; AD hippocampus) | proportion of SHA site ([2]; AD hippocampus) | pIC50 (tau, PSP FC homogenates) | proportion of HA binding sites (tau, CBD FC homogenates; vs 1 nM ^3H-PI2620) | proportion of SHA binding sites (tau, CBD FC homogenates; vs 1 nM ^3H-PI2620) | pIC50 (tau, CBD FC homogenates; vs 1 nM ^3H-PI2620, read-out: IC50(1), SHA site) | pIC50 (tau, CBD FC homogenates; vs 1 nM ^3H-PI2620, read-out: IC50(2), HA site) | in vitro binding using autoradiography [3] |
| --- | --- | --- | --- | --- | --- | --- | --- | --- | --- | --- | --- | --- | --- | --- | --- |
| Nc1c(F)ccc2cnc(-n3ccc4ccncc43)cc12 [MK6240] | > 70% and 76% | > 20% and 24% | 11.57 | 8.35 | 0.15 to 0.32 nM | 12 nM | 1 pM | 42% | 58% |  |  |  |  |  |  |
| Fc1cc(-c2ccc3c(n2)[nH]c2ccncc23)ccn1 [PI2620] | > 70% and 77% | > 20% and 23% | 11.09 | 8.31 | 8.5 nM |  |  |  |  | 8.60 | 54% | 46% | 11.25 | 8.11 |  |
| Fc1ccc(-c2ccc3c(n2)[nH]c2cnccc23)cn1 [RO948] | > 70% and 79% | > 20% and 21% | 11.24 | 8.17 | 18 nM |  |  |  |  |  |  |  |  |  |  |
| Fc1ccc(-c2ccc3c(c2)[nH]c2ccncc23)cn1 [^18F-AV-1451] |  |  |  |  |  |  |  |  |  |  |  |  |  |  | no in vitro binding |
